Earlier results on one compound are cited in patent US11878910B2, “Ph-based structural change of water soluble carbon nanoparticles for encapsulation and release of therapeutic agents in biological systems” (SINON THERAPEUTICS INC., priority 2015, dated 2024).

Consider `C1=Cc2nc1c(-c1ccccc1)c1nc(c(-c3ccccc3)c3ccc([nH]3)c(-c3ccccc3)c3ccc([nH]3)c2-c2ccccc2)C=C1` [TPP, tetraphenylporphyrin], for which the solubility in water entry is listed as “insoluble”.
